Results: PubChem BioAssay AID248 (DTP/NCI, 2004)
Values joined by “and” are separate entries in the source; they are usually repeats but may differ in a detail not shown here. Equal values may be shown once. Inconclusive results and toxic doses are left out. Rule as the data show it: active = T/C of 150% or more; inactive = T/C below 125%.

Test system: L1210 leukemia ip in BDF1 mice, survival T/C
Assay: NCI In Vivo Anticancer Drug Screen. Data for tumor model L1210 Leukemia (intraperitoneal) in B6D2F1 (BDF1) mice
Conditions: endpoint: mean survival time, higher = longer survival
Method in brief: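 Read-out is survival time, reported as the treated-group measurement over the vehicle-control measurement.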

[1] = dose: 25.0 mg/kg/injection, schedule: Q04DX003 (ip), vehicle: saline
[2] = dose: 50.0 mg/kg/injection, schedule: Q04DX003 (ip), vehicle: saline

Measured: T/C

CN1CCC=C(C(=O)N2c3ccccc3Sc3ccccc32)C1
inactive: dose: 25.0 mg/kg/injection, schedule: Q01DX009 (ip), vehicle: saline 88 % of control | [1] 97 % of control | dose: 50.0 mg/kg/injection, schedule: Q01DX009 (ip), vehicle: saline 96 % of control | [2] 96 % of control | dose: 100.0 mg/kg/injection, schedule: Q01DX009 (ip), vehicle: saline 102 % of control | dose: 100.0 mg/kg/injection, schedule: Q04DX003 (ip), vehicle: saline 96 % of control and 105 % of control

CCN(CC)CCSSCCN(CC)CC.[Cl][Mn][Cl]
inactive: dose: 100.0 mg/kg/injection, schedule: Q01DX001 (ip), vehicle: saline 103 % of control

Cn1cc(NC(=O)c2cc(NC(=O)CN=C(N)N)cn2C)cc1C(=O)NCCC(=N)N
inactive: dose: 6.3 mg/kg/injection, schedule: Q01DX Z (ip), vehicle: saline 88 % of control | dose: 12.5 mg/kg/injection, schedule: Q01DX Z (ip), vehicle: saline 92 % of control

CCCCCCCCCCCC(=O)Nc1ccc(SSc2ccc(NC(=O)CCCCCCCCCCC)cc2)cc1
inactive: dose: 50.0 mg/kg/injection, schedule: Q01DX001 (ip), vehicle: carboxymethylcellulose (CMC) 97 % of control | dose: 100.0 mg/kg/injection, schedule: Q01DX001 (ip), vehicle: carboxymethylcellulose (CMC) 103 % of control | dose: 200.0 mg/kg/injection, schedule: Q01DX001 (ip), vehicle: carboxymethylcellulose (CMC) 90 % of control | dose: 400.0 mg/kg/injection, schedule: Q01DX001 (ip), vehicle: carboxymethylcellulose (CMC) 101 % of control

CC(Cc1ccccc1)N(C)C (stereo not drawn)
inactive: dose: 12.5 mg/kg/injection, schedule: Q01DX001 (ip), vehicle: saline 102 % of control | dose: 25.0 mg/kg/injection, schedule: Q01DX001 (ip), vehicle: saline 94 % of control | [1] 101 % of control | dose: 50.0 mg/kg/injection, schedule: Q01DX001 (ip), vehicle: saline 94 % of control | [2] 101 % of control

COc1cc2c(cc1I)-c1c(cc(OC)c(OC)c1OC)CC[C@@H]2NC(C)=O
inactive: dose: 17.0 mg/kg/injection, schedule: Q01DX Z (ip), vehicle: carboxymethylcellulose (CMC) 102 % of control | dose: 26.0 mg/kg/injection, schedule: Q01DX Z (ip), vehicle: carboxymethylcellulose (CMC) 108 % of control | dose: 40.0 mg/kg/injection, schedule: Q01DX Z (ip), vehicle: carboxymethylcellulose (CMC) 119 % of control | dose: 49.0 mg/kg/injection, schedule: Q01DX Z (ip), vehicle: carboxymethylcellulose (CMC) 103 % of control | dose: 50.0 mg/kg/injection, schedule: Q01DX009 (ip), vehicle: saline sonified 108 % of control | dose: 60.0 mg/kg/injection, schedule: Q01DX Z (ip), vehicle: carboxymethylcellulose (CMC) 117 % of control | dose: 73.0 mg/kg/injection, schedule: Q01DX Z (ip), vehicle: carboxymethylcellulose (CMC) 103 % of control | dose: 90.0 mg/kg/injection, schedule: Q01DX Z (ip), vehicle: carboxymethylcellulose (CMC) 102 % of control | dose: 100.0 mg/kg/injection, schedule: Q01DX009 (ip), vehicle: saline sonified 106 % of control | dose: 100.0 mg/kg/injection, schedule: Q04DX003 (ip), vehicle: Klucel (hydroxypropylcellulose) (HPC) 99 % of control | dose: 110.0 mg/kg/injection, schedule: Q01DX Z (ip), vehicle: carboxymethylcellulose (CMC) 103 % of control | dose: 200.0 mg/kg/injection, schedule: Q01DX009 (ip), vehicle: saline sonified 119 % of control | dose: 200.0 mg/kg/injection, schedule: Q04DX003 (ip), vehicle: Klucel (hydroxypropylcellulose) (HPC) 99 % of control

CCCCC(C)C1(CC)C(=O)NC(=O)NC1=O (stereo not drawn)
inactive: dose: 75.0 mg/kg/injection, schedule: Q01DX001 (ip), vehicle: saline 95 % of control

C=CC(=O)Nc1cccc(OC(=O)NC)c1
inactive: dose: 100.0 mg/kg/injection, schedule: Q01DX001 (ip), vehicle: saline with Tween-80 99 % of control | dose: 200.0 mg/kg/injection, schedule: Q01DX001 (ip), vehicle: saline with Tween-80 100 % of control | dose: 400.0 mg/kg/injection, schedule: Q01DX001 (ip), vehicle: saline with Tween-80 92 % of control

CSCCOP(=O)(N(C)C)N(C)C
inactive: dose: 100.0 mg/kg/injection, schedule: Q04DX002 (ip), vehicle: Klucel (hydroxypropylcellulose) (HPC) 103 % of control | dose: 200.0 mg/kg/injection, schedule: Q04DX002 (ip), vehicle: Klucel (hydroxypropylcellulose) (HPC) 103 % of control | dose: 400.0 mg/kg/injection, schedule: Q04DX002 (ip), vehicle: Klucel (hydroxypropylcellulose) (HPC) 88 % of control
